According to ChEMBL document CHEMBL1145457, “Structure-activity studies and analgesic efficacy of N-(3-pyridinyl)-bridged bicyclic diamines, exceptionally potent agonists at nicotinic acetylcholine receptors” (J Med Chem, 2007):
Calls of active or inactive are those of the source. No cut-off for these calls is given here.

Legend:
Striatum = assay: Agonist activity at rat striatal tissue assessed as dopamine release; assay type: functional
[1] = biological target: Neuronal acetylcholine receptor; alpha4/beta2 (Rattus norvegicus, UniProt P09483+P12390); assay: Displacement of [3H]cytisine from alpha-4-beta-2 in rat cerebral cortical membrane; assay type: cell membranes
[2] = biological target: Neuronal acetylcholine receptor; alpha4/beta2 (Homo sapiens, UniProt P17787+P43681); assay: Agonist activity at […] in IMR-32cells assessed as calcium influx by FLIPR assay; assay type: functional
[3] = Drug level in Sprague-Dawley rat plasma at 6.2 umol/kg, ip after 60 mins; assay type: ADME, organism-based
[4] = Drug level in Sprague-Dawley rat plasma at 6.2 umol/kg, ip after 30 mins; assay type: ADME, organism-based
[5] = Drug level in Sprague-Dawley rat brain at 6.2 umol/kg, ip after 30 mins; assay type: ADME, organism-based; conditions: read-out: Drug uptake
[6] = Drug level in Sprague-Dawley rat at 6.2 umol/kg, ip after 60 mins; assay type: ADME, organism-based; conditions: brain, read-out: Drug uptake
Rattus norvegicus [7] = assay: Antinociceptive effect in rat assessed as reduction of flinches up to 6.2 umol/kg, ip; assay type: functional, organism-based
[8] = Drug levels in Sprague-Dawley rat plasma at 6.2 umol/kg, ip after 15 mins; assay type: ADME, organism-based
Rattus norvegicus [9] = assay: Effect on reversal of allodynia in rat chug model at 19 umol/kg, ip; assay type: functional, organism-based
[10] = Drug level in Sprague-Dawley rat brain at 6.2 umol/kg, ip after 15 mins; assay type: ADME, organism-based; conditions: read-out: Drug uptake
Mus musculus [11] = assay: Effect on urination in mouse at 6.2 umol/kg, ip; assay type: functional, organism-based
Mus musculus [12] = assay: Effect on head weaving in mouse at 6.2 umol/kg, ip; assay type: functional, organism-based
Rattus norvegicus [13] = species on record: Rattus norvegicus; assay: Reversal of mechanically-stimulated hyperalgesia in spinal nerve ligated rat chung model; assay type: functional, organism-based
Rattus norvegicus [14] = assay: Antinociceptive effect on rat assessed as increased latency to paw withdrawal in response to noxious thermal stimulus at 0.62 umol/kg, ip; assay type: functional, organism-based
Mus musculus [15] = assay: Induction of seizure in mouse at 62 umol/kg, ip; assay type: functional, organism-based
Rattus norvegicus [16] = assay: Antinociceptive effect on rat assessed as reduction of flinches up to 1.9 umol/kg, ip; assay type: functional, organism-based
Mus musculus [17] = assay: Effect on hypolocomotion in mouse at 6.2 umol/kg, ip; assay type: functional, organism-based
[18] = Rattus norvegicus, Striatum, read-out: EC50
[19] = Rattus norvegicus, Striatum, read-out: Log EC50 (converted)

Sequence of Neuronal acetylcholine receptor; alpha4/beta2 (Rattus norvegicus, UniProt P09483+P12390) (P09483 whole entry): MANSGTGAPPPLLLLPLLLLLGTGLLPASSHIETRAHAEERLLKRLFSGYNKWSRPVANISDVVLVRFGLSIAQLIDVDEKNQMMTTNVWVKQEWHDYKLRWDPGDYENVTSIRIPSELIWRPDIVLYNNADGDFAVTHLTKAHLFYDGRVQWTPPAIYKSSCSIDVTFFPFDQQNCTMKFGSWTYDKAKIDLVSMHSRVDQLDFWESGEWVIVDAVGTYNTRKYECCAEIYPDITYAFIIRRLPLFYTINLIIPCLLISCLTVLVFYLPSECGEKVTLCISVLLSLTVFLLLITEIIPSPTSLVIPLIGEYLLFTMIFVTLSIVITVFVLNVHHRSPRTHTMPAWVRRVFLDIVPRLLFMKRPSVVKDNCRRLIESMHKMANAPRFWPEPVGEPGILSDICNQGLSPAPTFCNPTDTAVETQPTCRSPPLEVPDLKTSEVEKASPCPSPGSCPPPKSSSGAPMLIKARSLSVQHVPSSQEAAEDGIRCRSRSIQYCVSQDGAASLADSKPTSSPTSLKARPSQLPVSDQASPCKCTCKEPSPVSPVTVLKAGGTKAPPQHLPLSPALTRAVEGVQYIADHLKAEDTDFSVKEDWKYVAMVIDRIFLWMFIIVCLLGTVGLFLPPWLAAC
Sequence of Neuronal acetylcholine receptor; alpha4/beta2 (Rattus norvegicus, UniProt P09483+P12390) (P12390 whole entry): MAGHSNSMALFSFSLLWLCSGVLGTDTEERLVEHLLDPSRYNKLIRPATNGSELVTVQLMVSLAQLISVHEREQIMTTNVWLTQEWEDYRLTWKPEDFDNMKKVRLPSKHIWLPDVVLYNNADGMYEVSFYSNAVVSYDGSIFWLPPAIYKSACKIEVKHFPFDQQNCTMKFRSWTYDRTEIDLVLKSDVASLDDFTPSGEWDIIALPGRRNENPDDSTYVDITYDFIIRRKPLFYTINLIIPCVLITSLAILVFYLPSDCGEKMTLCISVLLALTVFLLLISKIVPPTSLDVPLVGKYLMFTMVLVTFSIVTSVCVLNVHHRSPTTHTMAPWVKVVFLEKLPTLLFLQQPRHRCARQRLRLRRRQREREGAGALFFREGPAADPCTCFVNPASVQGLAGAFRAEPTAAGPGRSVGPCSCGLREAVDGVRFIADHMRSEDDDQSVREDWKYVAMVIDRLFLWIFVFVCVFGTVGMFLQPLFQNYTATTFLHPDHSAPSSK
Sequence of Neuronal acetylcholine receptor; alpha4/beta2 (Homo sapiens, UniProt P17787+P43681) (P17787 whole entry): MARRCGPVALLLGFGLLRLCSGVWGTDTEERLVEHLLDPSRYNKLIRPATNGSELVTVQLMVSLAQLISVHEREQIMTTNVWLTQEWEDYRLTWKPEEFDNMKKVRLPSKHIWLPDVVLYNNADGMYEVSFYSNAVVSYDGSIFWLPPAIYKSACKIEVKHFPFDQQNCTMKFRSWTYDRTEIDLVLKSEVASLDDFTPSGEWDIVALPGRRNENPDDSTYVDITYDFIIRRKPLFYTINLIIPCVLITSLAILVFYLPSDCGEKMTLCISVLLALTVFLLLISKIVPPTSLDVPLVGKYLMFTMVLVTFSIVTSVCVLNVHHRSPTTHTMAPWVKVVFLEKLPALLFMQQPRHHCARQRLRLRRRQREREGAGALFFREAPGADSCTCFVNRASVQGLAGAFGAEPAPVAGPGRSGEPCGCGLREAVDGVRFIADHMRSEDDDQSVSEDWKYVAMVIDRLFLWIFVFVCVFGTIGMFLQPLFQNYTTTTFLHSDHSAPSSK
Sequence of Neuronal acetylcholine receptor; alpha4/beta2 (Homo sapiens, UniProt P17787+P43681) (P43681 whole entry): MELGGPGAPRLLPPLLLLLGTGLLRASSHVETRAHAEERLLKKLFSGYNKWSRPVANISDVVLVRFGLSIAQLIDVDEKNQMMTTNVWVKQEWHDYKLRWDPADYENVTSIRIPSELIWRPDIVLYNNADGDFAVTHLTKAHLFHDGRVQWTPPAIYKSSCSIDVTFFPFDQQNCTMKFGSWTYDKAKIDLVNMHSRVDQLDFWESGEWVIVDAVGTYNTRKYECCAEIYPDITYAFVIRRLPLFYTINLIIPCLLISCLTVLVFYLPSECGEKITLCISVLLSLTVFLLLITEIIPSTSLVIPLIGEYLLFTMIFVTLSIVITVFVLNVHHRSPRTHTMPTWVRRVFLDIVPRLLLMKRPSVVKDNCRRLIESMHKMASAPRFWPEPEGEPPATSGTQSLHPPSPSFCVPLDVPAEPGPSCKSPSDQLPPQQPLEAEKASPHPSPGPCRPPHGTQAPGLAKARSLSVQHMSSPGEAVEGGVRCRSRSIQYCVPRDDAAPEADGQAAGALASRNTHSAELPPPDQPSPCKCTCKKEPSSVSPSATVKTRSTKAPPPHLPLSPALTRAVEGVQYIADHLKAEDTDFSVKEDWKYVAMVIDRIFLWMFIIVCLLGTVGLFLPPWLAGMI

N#Cc1cncc(N2C[C@@H]3C[C@H]2CN3)c1
Log EC50 (Striatum): -7.64
EC50 (Striatum; read-out: EC50): 23 nM
Ki ([1]; read-out: Ki): 1.7 nM
Ki ([1]; read-out: Log Ki (converted)): 1.62 nM
EC50 ([2]; read-out: EC50): 24000 nM

c1ccc(N2C[C@@H]3C[C@H]2CN3)cc1
Ki ([1]; read-out: Ki): 1000 nM

N#Cc1cncc(N2C[C@H]3C[C@@H]2CN3)c1
Log EC50 (Striatum): -9.1
EC50 (Striatum; read-out: EC50): 0.8 nM
Ki ([1]; read-out: Ki): 0.027 nM
EC50 ([2]; read-out: EC50): 980 nM

c1csc(N2C[C@@H]3C[C@H]2CN3)n1
Ki ([1]; read-out: Ki): 2300 nM

c1cncc(N2CC3CCC2CN3)c1 (stereo not drawn)
Ki ([1]; read-out: Ki): 0.02 nM
EC50 ([2]; read-out: EC50): 280 nM

COc1ccc(N2C[C@H]3C[C@@H]2CN3)cn1
Ki ([1]; read-out: Ki): 0.25 nM
EC50 ([2]; read-out: EC50): 850 nM

c1cnc2cc(N3C[C@H]4C[C@@H]3CN4)sc2c1
Ki ([1]; read-out: Ki): 0.83 nM

O=C1C2CC(CN2)N1c1ccc(Cl)nc1 (stereo not drawn)
Ki ([1]; read-out: Ki): > 10000 nM
Ki ([1]; read-out: Log Ki (converted)): > 100000 nM

c1cncc(N2CC3CNC(C3)C2)c1 (stereo not drawn)
Ki ([1]; read-out: Ki): 0.047 nM
EC50 ([2]; read-out: EC50): 72 nM

Oc1cc(N2C[C@H]3C[C@@H]2CN3)cnc1Cl
Log EC50 (Striatum): -8.42
EC50 (Striatum; read-out: EC50): 3.8 nM
Ki ([1]; read-out: Ki): 0.17 nM
EC50 ([2]; read-out: EC50): 3200 nM
concentration at 1 h [3]: 131 ng/mL
concentration at 0.5 h [4]: 289 ng/mL
concentration at 0.5 h [5]: 22 ng/g
concentration at 1 h [6]: 10 ng/g
Activity (Rattus norvegicus [7]): Active
concentration at 0.25 h [8]: 458 ng/mL
Activity (Rattus norvegicus [9]): inactive
concentration at 0.25 h [10]: 29 ng/g

Fc1ccc(N2C[C@H]3C[C@@H]2CN3)cn1
Log EC50 (Striatum): -6.7
EC50 (Striatum; read-out: EC50): 1.6 nM
Ki ([1]; read-out: Ki): 0.028 nM
EC50 ([2]; read-out: EC50): 160 nM
EC50 ([2]; read-out: Log EC50 (converted)): 1.62 nM

Cc1nsc(N2C[C@H]3C[C@@H]2CN3)n1
Ki ([1]; read-out: Ki): 350 nM

c1cncc(N2C[C@H]3C[C@@H]2CN3)c1
Ki ([1]; read-out: Ki): 0.018 nM
EC50 ([2]; read-out: EC50): 370 nM

c1cncc(N2C[C@@H]3C[C@H]2CN3)c1
EC50 (Striatum; [18]): 138 nM
EC50 (Striatum; [19]): 138 nM
Ki ([1]; read-out: Ki): 0.15 nM
EC50 ([2]; read-out: EC50): 6400 nM

c1cncc(N2CC3CNCC2C3)c1 (stereo not drawn)
Ki ([1]; read-out: Ki): 0.065 nM
EC50 ([2]; read-out: EC50): 1600 nM

c1ccc2ncc(N3C[C@@H]4C[C@H]3CN4)cc2c1
Ki ([1]; read-out: Ki): 17 nM

Oc1cncc(N2C[C@H]3C[C@@H]2CN3)c1
Log EC50 (Striatum): -8.24
EC50 (Striatum; read-out: EC50): 5.7 nM
Ki ([1]; read-out: Ki): 0.035 nM
EC50 ([2]; read-out: EC50): 2600 nM

CN1C[C@@H]2C[C@H]1CN2c1ccc(Cl)nc1
Ki ([1]; read-out: Ki): 1.3 nM

c1cnc2c(N3C[C@H]4C[C@@H]3CN4)csc2c1
Ki ([1]; read-out: Ki): 280 nM

Oc1cncc(N2C[C@@H]3C[C@H]2CN3)c1
Log EC50 (Striatum): -7.6
EC50 (Striatum; read-out: EC50): 28 nM
Ki ([1]; read-out: Ki): 4 nM
EC50 ([2]; read-out: EC50): > 100000 nM

Fc1ccc(N2C[C@@H]3C[C@H]2CN3)cn1
Log EC50 (Striatum): -7.72
EC50 (Striatum; read-out: EC50): 19 nM
Ki ([1]; read-out: Ki): 0.17 nM
Ki ([1]; read-out: Log Ki (converted)): 0.141 nM
EC50 ([2]; read-out: EC50): 3700 nM

NCc1cncc(N2C[C@@H]3C[C@H]2CN3)c1
Ki ([1]; read-out: Ki): 140 nM
EC50 ([2]; read-out: EC50): 20000 nM

COc1cc(N2C[C@H]3C[C@@H]2CN3)cnc1Cl
Ki ([1]; read-out: Ki): 0.1 nM
EC50 ([2]; read-out: EC50): 4300 nM

Fc1cccc(N2C[C@@H]3C[C@H]2CN3)c1
Ki ([1]; read-out: Ki): 250 nM

Clc1cc(N2C[C@H]3C[C@@H]2CN3)cnc1Cl
EC50 (Striatum; [18]): 16 nM
EC50 (Striatum; [19]): 16.2 nM
Ki ([1]; read-out: Ki): 0.018 nM
EC50 ([2]; read-out: EC50): 550 nM

Cc1ccc(N2C[C@@H]3C[C@H]2CN3)cn1
EC50 (Striatum; [18]): 350 nM
EC50 (Striatum; [19]): 347 nM
Ki ([1]; read-out: Ki): 1.6 nM
EC50 ([2]; read-out: EC50): 1700 nM

Clc1ccc(C2CC3CCC2N3)cn1 (stereo not drawn) [EPIBATIDINE]
EC50 (Striatum; [18]): 0.83 nM
EC50 (Striatum; [19]): 0.832 nM

COc1cncc(N2C[C@H]3C[C@@H]2CN3)c1
Log EC50 (Striatum): -7.7
EC50 (Striatum; read-out: EC50): 20 nM
Ki ([1]; read-out: Ki): 0.12 nM
EC50 ([2]; read-out: EC50): 5700 nM

Cc1cc(N2C[C@@H]3C[C@H]2CN3)nnc1Cl
Ki ([1]; read-out: Ki): 3.8 nM

Clc1ccc(N2CC3CC2CCN3)cn1 (stereo not drawn)
Ki ([1]; read-out: Ki): 2.8 nM
EC50 ([2]; read-out: EC50): 7440 nM

Clc1ccc(N2C[C@@H]3C[C@H]2CN3)cn1
Log EC50 (Striatum): -8.28
EC50 (Striatum; read-out: EC50): 5.3 nM
Activity (Mus musculus [11]): Active
Ki ([1]; read-out: Ki): 0.1 nM
EC50 ([2]; read-out: EC50): 450 nM
Activity (Mus musculus [12]): Active
Activity (Rattus norvegicus [13]): Active
Activity (Rattus norvegicus [14]): Active
Activity (Mus musculus [15]): Active
Activity (Rattus norvegicus [16]): Active
Activity (Mus musculus [17]): Active

CCN1C[C@@H]2C[C@H]1CN2c1ccc(Cl)nc1
Ki ([1]; read-out: Ki): 34 nM

O=[N+]([O-])c1ccc(N2C[C@@H]3C[C@H]2CN3)cn1
Ki ([1]; read-out: Ki): 110 nM
EC50 ([2]; read-out: EC50): 11000 nM

O=C(c1ccc(Cl)nc1)N1C[C@H]2C[C@@H]1CN2
Ki ([1]; read-out: Ki): 590 nM

COc1cncc(N2C[C@@H]3C[C@H]2CN3)c1
Log EC50 (Striatum): -7.09
EC50 (Striatum; read-out: EC50): 81 nM
Ki ([1]; read-out: Ki): 0.53 nM
EC50 ([2]; read-out: EC50): 30000 nM

Nc1ccc(N2CC3CC2CN3)cn1 (stereo not drawn)
Ki ([1]; read-out: Ki): 20 nM
EC50 ([2]; read-out: EC50): 31000 nM

NC(=O)c1cncc(N2C[C@@H]3C[C@H]2CN3)c1
Ki ([1]; read-out: Ki): 24 nM
EC50 ([2]; read-out: EC50): 25000 nM

NC(=O)c1cncc(N2C[C@H]3C[C@@H]2CN3)c1
EC50 (Striatum; [18]): 30 nM
EC50 (Striatum; [19]): 30.2 nM
Ki ([1]; read-out: Ki): 0.83 nM
EC50 ([2]; read-out: EC50): 28000 nM

c1cnnc(N2C[C@@H]3C[C@H]2CN3)c1
Ki ([1]; read-out: Ki): 120 nM

Oc1cc(N2C[C@@H]3C[C@H]2CN3)cnc1Cl
Log EC50 (Striatum): -7.3
EC50 (Striatum; read-out: EC50): 51 nM
Ki ([1]; read-out: Ki): 1.6 nM
EC50 ([2]; read-out: EC50): 35000 nM

FC(F)(F)c1cncc(N2C[C@H]3C[C@@H]2CN3)c1
Ki ([1]; read-out: Ki): 490 nM

O=[N+]([O-])c1cccc(N2C[C@@H]3C[C@H]2CN3)c1
Ki ([1]; read-out: Ki): 600 nM

Cc1cc(N2C[C@@H]3C[C@H]2CN3)sn1
Ki ([1]; read-out: Ki): 4.9 nM

O=[N+]([O-])c1ccc(N2C[C@@H]3C[C@H]2CN3)cc1
Ki ([1]; read-out: Ki): 67 nM

c1ccc2nc(N3C[C@@H]4C[C@H]3CN4)ccc2c1
Ki ([1]; read-out: Ki): 4000 nM

C[N+]1(C)CC2CC1CN2c1ccc(Cl)nc1 (stereo not drawn)
Ki ([1]; read-out: Ki): 0.2 nM
EC50 ([2]; read-out: EC50): 1500 nM

Clc1ccc(N2C[C@H]3C[C@@H]2CN3)cn1
Log EC50 (Striatum): -8.6
EC50 (Striatum; read-out: EC50): 2.5 nM
Ki ([1]; read-out: Ki): 0.018 nM
EC50 ([2]; read-out: EC50): 140 nM

CN1CCC[C@H]1c1cccnc1 [NICOTINE]
EC50 (Striatum; [18]): 200 nM
EC50 (Striatum; [19]): 200 nM

Clc1nnc(N2C[C@@H]3C[C@H]2CN3)c2ccccc12
Ki ([1]; read-out: Ki): 1900 nM

c1ncc(N2C[C@@H]3C[C@H]2CN3)cn1
Ki ([1]; read-out: Ki): 0.95 nM

Cc1cc(N2C[C@H]3C[C@@H]2CN3)cnc1Cl
Ki ([1]; read-out: Ki): 0.014 nM
EC50 ([2]; read-out: EC50): 180 nM

Clc1ccc(N2C[C@@H]3C[C@H]2CN3)cc1
Ki ([1]; read-out: Ki): 22 nM

Clc1cc(N2CC3CC2CN3)ncn1 (stereo not drawn)
Ki ([1]; read-out: Ki): 52 nM

O=S(=O)(c1cnc(Cl)c(Br)c1)N1C[C@H]2C[C@@H]1CN2
Ki ([1]; read-out: Ki): 17 nM

c1cncc(CN2C[C@H]3C[C@@H]2CN3)c1
Ki ([1]; read-out: Ki): 56 nM

c1ccc(N2C[C@@H]3C[C@H]2CN3)nc1
Ki ([1]; read-out: Ki): 980 nM
